Data on one compound can be found in patent US20180296542A1, “IMINOSUGARS FOR IMPROVING BONE MINERAL DENSITY IN BONE DISEASE” (Saint Louis University, priority 2015, published 2018).

The structures appear in SMILES notation.

For data set [1], the system named is TNSALP-null (Akp2^−/−) mice, in vivo model of bone disease (WT, Het, KO). As to the kind of experiment: MicroCT of femur cortical bone (Example 2). To be noted: for Normalized bone area-cortical bone volume fraction: FIG. 17. The method, then: (§1) TNSALP-null (Akp2^−/−) mice served as an in vivo model of bone disease to analyze the effects of the iminosugar, Miglustat.
(§2) Mice were obtained, bred and genotyped as described above. Five mice of each genotype (Wild-type (WT), heterozygous (Het), and homozygous (KO)) were included in each treatment group (i.p. administration of PBS, 400 mg/kg Miglustat, and 1200 mg/kg Miglustat as described above). A total of 44 mice were analyzed (1 Akp2^−/− homozygous mouse was omitted in the PBS group). Mice were scanned using microCT and analyzed as described above. Cortical bone in the middle 20% of bone length from trochanter to distal condyles in the femur was scanned and cortical thickness and bone mineral density were obtained. Cortical thickness (Ct.Th, μm) was used as an indication of average thickness of cortical bone. Trabecular bone of the final 625 μm before the femoral growth plate was scanned.
As depicted in FIG. 14, Miglustat improved cortical thickness in heterozygous mice at 400 mg/kg. […] Cortical bone area (Ct.Ar, mm^2) was determined by dividing cortical volume by the number of slices X slice thickness. As depicted in FIG. 16, cortical bone area increased in Wild-type (WT) and Heterozygotes (Het) administered 400 mg/kg Miglustat. […] In Homozygotes administered 1,200 mg/kg normalized bone area-cortical bone volume fraction decreased.
The attenuation depended on physical density and electron density of bone. As depicted in FIG. 18, high doses of Miglustat improved tissue mineral density in Heterozygotes.

The subject of data set [2] is TNSALP-null (Akp2^−/−) mice (WT, KO). As to the kind of experiment: MicroCT of trabecular bone in the lumbar vertebrae (Example 2). Type of data set: in vivo. The method, then: as §1, §2
In addition to microCT analysis of femurs, microCT analysis was performed on trabecular bone in the lumbar vertebrae. […] Bone volume fraction of vertebrae is the ratio of the segmented bone volume to the total volume of the region of interest.
As depicted in FIG. 30, trabecular thickness (Tb.Th, mm) increased at 400 mg/kg of Miglustat. The profile of trabecular thickness in spine without treatment is different than femoral trabecular thickness. Trabecular thickness is the mean thickness or trabeculae assessed using direct 3D methods described above.
The profile of trabecular separation in spine is different than in femoral. Trabecular separation is the mean distance between trabeculae assessed using direct 3D methods described above.
The profile and baseline number of trabeculae in spine was different than in femoral. Trabecular number is the measure of the average number of trabeculae per unit length.
As depicted in FIG. 33, structure model index decreased in homozygote mice treated with Miglustat. […] As discussed previously, SMI is an indicator of the structure of the trabeculae. SMI will be zero for parallel plates and 3 for cylindrical rods.
As depicted in FIG. 34, the connectivity density increased after treatment of homozygotes with high doses of Miglustat. As described above, connectivity density is a measure of the degree of connectivity of trabeculae normalized by total volume.
As depicted in FIG. 35, the degree of anisotropy increased with Miglustat meaning that treatment affected the orientation of trabeculae in the bone. Degree of anisotropy defines the direction and magnitude of the preferred orientation of trabeculae and uses the ratio between the maximum and minimum radii of the mean intercept length ellipsoid.

The subject of data set [3] is TNSALP-null (Akp2^−/−) mice, in vivo model of bone disease (WT, Het, KO). As to the kind of experiment: MicroCT of femur trabecular bone (Example 2). As for the experimental part:
as §1, §2
Bone volume fraction is the ratio of the segmented bone volume to the total volume of the region of interest.
Trabecular thickness was measured as illustrated in FIG. 23. […] Trabecular separation is the mean distance between trabeculae assessed using direct 3D methods as illustrated in FIG. 25.
As depicted in FIG. 26, the trabecular number changed with Miglustat in both heterozygotes and homozygotes treated with Miglustat. As depicted in FIG. 27, structure model index (SMI) increased in homozygous AKP mice treated with Miglustat. […] SMI represents an indicator of the structure of the trabeculae. SMI will be zero for parallel plates and 3 for cylindrical rods.
Connectivity density is a measure of the degree of connectivity of trabeculae normalized by total volume.

Data set [4] has as its system TNSALP-null (Akp2^−/−) mice (WT, Het, KO). As to the kind of experiment: Growth (percent change in weight) and toxicity in treated mice (Example 2). Type of data set: in vivo. As for the experimental part: At the age of one month, mice were administered 100 μL injections of phosphate-buffered saline (PBS) with 0 mg/kg, 400 mg/kg, or 1200 mg/kg of Miglustat (250 mg/mL) to the peritoneal cavity for gradual diffusion of the drug. Mice were massed each day to adjust Miglustat dosages to body weight. Intraperitoneal injections (IP) continued daily for one month before mice were euthanized with CO2 at the age of two months. Mice were on a Pyridoxine Supplement Diet (“Vitamin B6 Diet”) to prevent seizures. NAPA NECTAR™ (Systems Engineering™) was provided every alternating day to prevent dehydration. Urine samples were collected once a week and blood samples were collected from cheek tissue at the beginning and end of treatment.
as §2, with “Cortical thickness (Ct.Th, μm) was used as an indication of average thickness of cortical bone. Trabecular bone of the final 625 μm before the femoral growth plate was scanned.” left out

On to `CCCCN1C[C@H](O)[C@@H](O)[C@H](O)[C@H]1CO` [Miglustat, (2R,3R,4R,5S)-1-butyl-2-(hydroxymethyl)piperidine-3,4,5-triol], for which, in data set [1] (Heterozygotes, 400 mg/kg, FIG. 15), the “Total cross sectional area inside the periosteal envelope (Tt.Ar)” value is given as “slight increase”. The Tissue mineral density entry in data set [1] (Heterozygotes, high doses, FIG. 18) is “improved”. Besides, the “Normalized bone area-cortical bone volume fraction” value in data set [1] (Homozygotes, 1,200 mg/kg) was “decreased”; in data set [1] (Wild-type and Heterozygotes), “did not have an effect”. For the same compound, the “Cortical bone area (Ct.Ar)” value in data set [1] (Wild-type (WT) and Heterozygotes (Het), 400 mg/kg, FIG. 16) is listed as “increased”. Moreover, the “Cortical thickness (Ct.Th)” value in data set [1] (heterozygous mice, 400 mg/kg, FIG. 14) is reported as “improved”. Moreover, in data set [2] (400 mg/kg, FIG. 30), the “Trabecular thickness (Tb.Th), lumbar vertebrae” value is listed as “increased”. For the same compound, the “Trabecular separation (Tb.Sp), lumbar vertebrae” value in data set [2] (FIG. 31) was “increased proportional to dose”. The “Trabecular number (Tb.N), lumbar vertebrae” value in data set [2] (FIG. 32) is “did not change significantly”. Besides, the “Degree of anisotropy (DA), lumbar vertebrae” value in data set [2] (FIG. 35) is listed as “increased”. For the same compound, the “Structure model index (SMI), lumbar vertebrae” value in data set [2] (homozygote mice, FIG. 33) is on record as “decreased”. For the same compound, in data set [2] (homozygotes, high doses, FIG. 34), the “Connectivity density (Conn. D), lumbar vertebrae” value is “increased”. Moreover, the “Overall bone volume (bone volume fraction), lumbar vertebrae” value in data set [2] (homozygotes, FIG. 29) is reported as “not significantly increased”. For the same compound, the “Trabecular separation (Tb.Sp), femur” value in data set [3] (FIG. 24) is on record as “decrease”. In addition, the “Appearance of trabeculae (microCT images)” value in data set [3] (Homozygotes (KO), 400 and 1200 mg/kg, FIGS. 20A-20D) is “restore the appearance of narrow trabeculae”. Further, the “Overall bone volume (bone volume fraction), femur” value in data set [3] (after treatment, FIG. 21) is recorded as “not significantly increased”. For the same compound, the “Trabecular number (Tb.N), femur” value in data set [3] (heterozygotes and homozygotes, FIG. 26) is given as “changed”. Besides, in data set [3] (heterozygotes or homozygotes, FIG. 28), the “Connectivity density (Conn. D), femur” value is given as “did not change”. The “Trabecular thickness (Tb.Th), femur” value in data set [3] (homozygotes, FIG. 22) is given as “lower”. The “Structure model index (SMI), femur” value in data set [3] (homozygous AKP mice, FIG. 27) was “increased”. Also, in data set [4] (400 mg/kg/day and 1,200 mg/kg/day delivered intraperitoneally), the Toxicity result is “no toxicity was observed”. Also, the “Growth as measured by percent change in weight” value in data set [4] (high doses of Miglustat, particularly notable in WT and Het mice, FIG. 12) was “impeded growth”.
